Test results taken from publication PMC10382584, “Macrocyclization of linear molecules by deep learning to facilitate macrocyclic drug candidates discovery” (Nature Communications, 2023).

Assays:
Assay in all cases: biochemical
Set-up in all cases: DiscoveRx KINOMEscan competition binding, percent of DMSO control signal at 100 nM
Conditions in all cases: read-out: Fig. 4a / Percent Control / Compound 1; percent of DMSO control, competition binding
MARK4 = MARK4 (Homo sapiens, UniProt Q96L34)
CSNK1D = CSNK1D (Homo sapiens, UniProt P48730)
MAPKAPK5 = MAPKAPK5 (Homo sapiens, UniProt Q8IW41)
[1] = target: T1, RPS6KA5(Kin.Dom.2-C-terminal) (Homo sapiens, UniProt O75582)
T1 construct: Kin.Dom.2-C-terminal

CDC2L5 = target: T2, CDC2L5 (Homo sapiens, UniProt Q14004)
T2 construct: gene CDK13

SRMS = SRMS (Homo sapiens, UniProt Q9H3Y6)
[2] = target: T3, RSK2(Kin.Dom.2-C-terminal) (Homo sapiens, UniProt P51812)
T3 construct: gene RPS6KA3; Kin.Dom.2-C-terminal

RIPK1 = RIPK1 (Homo sapiens, UniProt Q13546)
S6K1 = target: T4, S6K1 (Homo sapiens, UniProt P23443)
T4 construct: gene RPS6KB1

EGFR(E746-A750del) = EGFR(E746-A750del) (Homo sapiens, UniProt P00533, DEL746-750)
MAP3K15 = MAP3K15 (Homo sapiens, UniProt Q6ZN16)
MAP3K15, sequence (Q6ZN16 whole entry): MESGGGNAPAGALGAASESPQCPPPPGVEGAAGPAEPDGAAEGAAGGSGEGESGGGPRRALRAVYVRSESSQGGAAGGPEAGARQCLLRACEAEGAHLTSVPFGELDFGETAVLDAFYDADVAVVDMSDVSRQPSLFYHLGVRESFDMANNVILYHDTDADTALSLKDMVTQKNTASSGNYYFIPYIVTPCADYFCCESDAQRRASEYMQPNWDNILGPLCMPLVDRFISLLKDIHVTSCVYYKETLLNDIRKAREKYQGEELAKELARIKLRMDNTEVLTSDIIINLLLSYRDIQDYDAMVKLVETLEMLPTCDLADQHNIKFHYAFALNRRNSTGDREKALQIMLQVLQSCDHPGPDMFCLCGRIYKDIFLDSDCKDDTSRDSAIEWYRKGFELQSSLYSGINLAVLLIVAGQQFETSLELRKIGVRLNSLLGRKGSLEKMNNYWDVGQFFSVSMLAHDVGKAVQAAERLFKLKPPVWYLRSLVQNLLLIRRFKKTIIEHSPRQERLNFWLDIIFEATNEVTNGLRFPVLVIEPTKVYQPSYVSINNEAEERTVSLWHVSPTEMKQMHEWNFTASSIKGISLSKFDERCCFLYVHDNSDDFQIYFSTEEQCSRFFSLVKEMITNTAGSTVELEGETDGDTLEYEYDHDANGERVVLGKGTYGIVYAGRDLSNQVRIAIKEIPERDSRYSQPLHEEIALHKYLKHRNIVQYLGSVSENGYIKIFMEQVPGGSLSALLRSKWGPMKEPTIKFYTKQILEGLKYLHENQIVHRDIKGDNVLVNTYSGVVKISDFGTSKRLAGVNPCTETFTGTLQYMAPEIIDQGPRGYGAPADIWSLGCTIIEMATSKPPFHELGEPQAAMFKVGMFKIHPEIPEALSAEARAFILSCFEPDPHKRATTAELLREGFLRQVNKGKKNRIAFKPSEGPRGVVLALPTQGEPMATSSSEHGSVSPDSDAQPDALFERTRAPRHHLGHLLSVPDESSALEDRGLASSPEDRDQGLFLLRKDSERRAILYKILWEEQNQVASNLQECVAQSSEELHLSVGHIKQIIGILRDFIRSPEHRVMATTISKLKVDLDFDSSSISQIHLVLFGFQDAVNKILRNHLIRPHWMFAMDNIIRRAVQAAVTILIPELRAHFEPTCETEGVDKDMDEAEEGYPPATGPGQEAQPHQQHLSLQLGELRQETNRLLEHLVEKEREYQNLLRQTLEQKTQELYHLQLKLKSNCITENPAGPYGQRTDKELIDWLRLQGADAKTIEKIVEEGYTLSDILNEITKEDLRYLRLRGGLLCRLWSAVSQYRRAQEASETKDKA

PIP5K1A = PIP5K1A (Homo sapiens, UniProt Q99755)
PIP5K1A, sequence (Q99755 whole entry): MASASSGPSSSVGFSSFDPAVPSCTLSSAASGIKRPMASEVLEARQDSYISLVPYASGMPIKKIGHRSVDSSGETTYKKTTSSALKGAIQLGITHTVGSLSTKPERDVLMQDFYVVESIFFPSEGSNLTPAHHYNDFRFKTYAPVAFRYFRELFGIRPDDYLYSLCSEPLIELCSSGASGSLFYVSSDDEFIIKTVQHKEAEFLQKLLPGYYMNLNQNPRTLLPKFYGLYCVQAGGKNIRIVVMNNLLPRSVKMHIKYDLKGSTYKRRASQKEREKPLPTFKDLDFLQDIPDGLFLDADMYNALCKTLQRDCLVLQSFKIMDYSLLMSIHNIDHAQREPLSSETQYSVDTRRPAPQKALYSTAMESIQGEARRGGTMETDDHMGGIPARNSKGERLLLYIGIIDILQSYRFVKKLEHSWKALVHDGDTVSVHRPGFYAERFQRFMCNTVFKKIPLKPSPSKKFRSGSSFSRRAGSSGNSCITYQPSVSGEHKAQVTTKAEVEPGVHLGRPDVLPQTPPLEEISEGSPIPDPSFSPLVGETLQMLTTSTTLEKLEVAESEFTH

EPHA7 = EPHA7 (Homo sapiens, UniProt Q15375)
PFTK1 = target: T5, PFTK1 (Homo sapiens, UniProt O94921)
T5 construct: gene CDK14

CDKL3 = CDKL3 (Homo sapiens, UniProt Q8IVW4)
NEK10 = NEK10 (Homo sapiens, UniProt Q6ZWH5)
SRPK2 = SRPK2 (Homo sapiens, UniProt P78362)
BTK = BTK (Homo sapiens, UniProt Q06187)
BTK, sequence (Q06187 whole entry): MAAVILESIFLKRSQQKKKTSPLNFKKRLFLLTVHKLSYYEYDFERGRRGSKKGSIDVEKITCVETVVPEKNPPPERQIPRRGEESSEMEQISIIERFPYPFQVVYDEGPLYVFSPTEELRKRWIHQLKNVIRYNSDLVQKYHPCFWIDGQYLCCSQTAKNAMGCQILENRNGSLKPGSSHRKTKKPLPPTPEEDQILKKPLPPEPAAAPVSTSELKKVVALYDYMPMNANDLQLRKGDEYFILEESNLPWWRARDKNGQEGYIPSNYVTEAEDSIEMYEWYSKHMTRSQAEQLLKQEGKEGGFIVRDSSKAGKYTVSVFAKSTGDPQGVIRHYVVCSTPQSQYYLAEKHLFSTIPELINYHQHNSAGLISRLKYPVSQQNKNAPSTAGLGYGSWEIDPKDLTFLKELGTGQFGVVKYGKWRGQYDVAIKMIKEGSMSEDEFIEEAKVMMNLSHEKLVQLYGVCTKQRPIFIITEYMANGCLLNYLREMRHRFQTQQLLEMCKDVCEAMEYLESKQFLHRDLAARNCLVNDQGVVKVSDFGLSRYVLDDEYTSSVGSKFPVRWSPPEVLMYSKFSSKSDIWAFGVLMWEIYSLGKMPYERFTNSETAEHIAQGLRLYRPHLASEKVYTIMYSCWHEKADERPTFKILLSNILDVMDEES

MRCKB = target: T6, MRCKB (Homo sapiens, UniProt Q9Y5S2)
T6 construct: gene CDC42BPB
T6 sequence (Q9Y5S2 whole entry): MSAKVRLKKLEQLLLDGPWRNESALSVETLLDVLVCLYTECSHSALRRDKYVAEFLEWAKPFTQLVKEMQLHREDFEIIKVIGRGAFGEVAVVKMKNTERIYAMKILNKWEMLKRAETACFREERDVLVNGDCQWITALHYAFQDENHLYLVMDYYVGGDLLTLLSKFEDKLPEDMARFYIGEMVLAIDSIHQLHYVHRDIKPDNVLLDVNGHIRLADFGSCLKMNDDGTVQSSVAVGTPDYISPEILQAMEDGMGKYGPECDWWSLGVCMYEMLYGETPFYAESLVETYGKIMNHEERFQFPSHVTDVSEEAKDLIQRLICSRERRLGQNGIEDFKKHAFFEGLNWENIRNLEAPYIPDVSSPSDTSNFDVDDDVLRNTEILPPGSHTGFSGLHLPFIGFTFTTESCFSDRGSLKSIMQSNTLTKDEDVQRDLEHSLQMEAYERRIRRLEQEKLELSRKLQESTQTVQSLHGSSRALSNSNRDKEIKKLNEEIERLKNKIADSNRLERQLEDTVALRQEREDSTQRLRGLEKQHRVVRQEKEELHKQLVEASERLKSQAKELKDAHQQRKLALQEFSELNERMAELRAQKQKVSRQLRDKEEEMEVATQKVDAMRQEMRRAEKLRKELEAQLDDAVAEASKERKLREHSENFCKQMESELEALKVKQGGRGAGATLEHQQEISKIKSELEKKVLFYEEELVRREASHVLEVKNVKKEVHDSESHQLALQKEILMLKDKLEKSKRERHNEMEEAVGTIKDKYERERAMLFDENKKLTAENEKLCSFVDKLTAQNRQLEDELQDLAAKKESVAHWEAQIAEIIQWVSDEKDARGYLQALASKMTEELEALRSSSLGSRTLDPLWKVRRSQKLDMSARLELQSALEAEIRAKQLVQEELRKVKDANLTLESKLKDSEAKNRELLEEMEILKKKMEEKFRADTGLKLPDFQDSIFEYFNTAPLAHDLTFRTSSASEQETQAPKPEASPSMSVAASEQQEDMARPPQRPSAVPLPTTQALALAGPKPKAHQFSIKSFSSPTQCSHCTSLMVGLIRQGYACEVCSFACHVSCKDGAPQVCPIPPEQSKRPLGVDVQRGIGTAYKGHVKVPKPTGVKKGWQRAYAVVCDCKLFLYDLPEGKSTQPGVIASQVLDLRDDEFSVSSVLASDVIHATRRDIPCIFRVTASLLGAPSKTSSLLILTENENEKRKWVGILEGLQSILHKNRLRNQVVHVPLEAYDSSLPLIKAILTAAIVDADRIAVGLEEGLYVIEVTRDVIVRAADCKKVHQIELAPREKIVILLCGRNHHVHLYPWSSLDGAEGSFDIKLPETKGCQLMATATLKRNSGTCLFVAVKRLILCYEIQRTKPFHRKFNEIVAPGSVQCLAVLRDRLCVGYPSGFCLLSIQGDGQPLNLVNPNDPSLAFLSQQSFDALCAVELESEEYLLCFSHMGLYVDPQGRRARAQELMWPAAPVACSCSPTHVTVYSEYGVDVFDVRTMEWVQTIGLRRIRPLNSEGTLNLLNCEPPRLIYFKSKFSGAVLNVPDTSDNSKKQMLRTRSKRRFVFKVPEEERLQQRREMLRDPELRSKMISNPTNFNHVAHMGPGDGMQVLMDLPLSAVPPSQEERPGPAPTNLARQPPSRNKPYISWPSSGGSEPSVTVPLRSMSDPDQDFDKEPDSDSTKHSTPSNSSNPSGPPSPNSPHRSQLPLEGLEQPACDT

LCK = LCK (Homo sapiens, UniProt P06239)
CDC2L2 = target: T7, CDC2L2 (Homo sapiens, UniProt Q9UQ88)
T7 construct: gene CDK11A
T7 sequence (Q9UQ88 whole entry): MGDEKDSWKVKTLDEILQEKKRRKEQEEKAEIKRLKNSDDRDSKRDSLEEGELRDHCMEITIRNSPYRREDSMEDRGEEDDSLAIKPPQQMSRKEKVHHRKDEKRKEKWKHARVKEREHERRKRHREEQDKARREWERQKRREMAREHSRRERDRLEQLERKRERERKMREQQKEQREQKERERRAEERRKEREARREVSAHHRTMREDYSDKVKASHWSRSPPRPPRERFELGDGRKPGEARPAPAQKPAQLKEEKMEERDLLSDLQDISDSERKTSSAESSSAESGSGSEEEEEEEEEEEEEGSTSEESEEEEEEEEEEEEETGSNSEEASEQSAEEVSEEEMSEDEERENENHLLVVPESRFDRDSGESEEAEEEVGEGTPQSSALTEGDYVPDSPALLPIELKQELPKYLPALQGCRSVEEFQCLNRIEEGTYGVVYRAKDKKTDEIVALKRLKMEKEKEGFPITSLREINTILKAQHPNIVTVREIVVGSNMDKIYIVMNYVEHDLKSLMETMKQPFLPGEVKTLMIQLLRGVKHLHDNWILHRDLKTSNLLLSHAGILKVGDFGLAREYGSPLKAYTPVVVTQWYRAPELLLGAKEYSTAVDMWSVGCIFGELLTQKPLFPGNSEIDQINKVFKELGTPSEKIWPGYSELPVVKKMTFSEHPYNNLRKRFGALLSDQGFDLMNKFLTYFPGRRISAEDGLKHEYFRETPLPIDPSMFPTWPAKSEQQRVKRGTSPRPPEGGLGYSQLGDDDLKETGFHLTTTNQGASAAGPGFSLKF

TYRO3 = TYRO3 (Homo sapiens, UniProt Q06418)
YANK2 = target: T8, YANK2 (Homo sapiens, UniProt Q9NY57)
T8 construct: gene STK32B

TAOK2 = TAOK2 (Homo sapiens, UniProt Q9UL54)
CDK5 = CDK5 (Homo sapiens, UniProt Q00535)
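Note: KINOMEscan kinase panel binding assay, signal normalized between DMSO as 100% and a positive control compound as 0%.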

`Cc1cnc2nc1Nc1cccc(c1)COCc1cc(ccc1OCCN1CCCC1)N2` [Compound 1] gave a remaining binding at 0.1 µM (MARK4) of 77%, a remaining binding at 0.1 µM (CSNK1D) of 100% and a remaining binding at 0.1 µM (MAPKAPK5) of 69%. For the same compound, the remaining binding at 0.1 µM [1] was 100%, the remaining binding at 0.1 µM (CDC2L5) was 81% and the remaining binding at 0.1 µM (SRMS) was 75%. For the same compound, the remaining binding at 0.1 µM [2] was 87%, the remaining binding at 0.1 µM (RIPK1) was 93% and the remaining binding at 0.1 µM (S6K1) was 98%. For the same compound, the remaining binding at 0.1 µM (EGFR(E746-A750del)) was 89%, the remaining binding at 0.1 µM (MAP3K15) was 68% and the remaining binding at 0.1 µM (PIP5K1A) was 49%. For the same compound, the remaining binding at 0.1 µM (EPHA7) was 98%, the remaining binding at 0.1 µM (PFTK1) was 84% and the remaining binding at 0.1 µM (CDKL3) was 77%. For the same compound, the remaining binding at 0.1 µM (NEK10) was 95%, the remaining binding at 0.1 µM (SRPK2) was 100% and the remaining binding at 0.1 µM (BTK) was 86%. The remaining binding at 0.1 µM (MRCKB) was 96%, the remaining binding at 0.1 µM (LCK) was 72% and the remaining binding at 0.1 µM (CDC2L2) was 94%. It also gave a remaining binding at 0.1 µM (TYRO3) of 55%, a remaining binding at 0.1 µM (YANK2) of 95% and a remaining binding at 0.1 µM (TAOK2) of 63%. The remaining binding at 0.1 µM (CDK5) was 100%.
